# Values of other authors in US4199515A (priority 1978, dated 1980).
# Test system: gram-positive bacteria
# Conditions: background statement
smiles,measurement,value
CO[C@@H]1[C@H](C)[C@H]([C@]2(C)CC[C@H]([C@]3(C)CC[C@]4(C[C@H](OC)[C@@H](C)[C@@H]([C@@H](C)[C@H]5O[C@@](O)([C@H](C)C(=O)O)[C@H](C)[C@@H](OC)[C@H]5C)O4)O3)O2)O[C@H]1[C@H]1O[C@](C)(O)[C@H](C)[C@@H](OC)[C@@H]1C [Lonomycin],activity to gram positive bacteria,activity to gram positive bacteria
